Measured values taken from paper PMC10084949, “Peptide Variant Detection by a Living Yeast Biosensor via an Epitope-Selective Protease” (Biodesign Research, 2023).

What was measured:
ScSte2 + ScBar1 = target: T1, ScSte2 + ScBar1 (Saccharomyces cerevisiae, UniProt D6VTK4); assay: Dose-response activation of ScSte2 biosensor strain secreting ScBar1 (two copies, yBB01), fluorescent readout; type: cell-based; details: SEM
T1 construct: we cloned codon-optimized open reading frames (ORFs) of all 5 proteases and GPCRs; expressed in transfected cells; host or cells: S. cerevisiae yBB01 (from yTC370; pTDH3-ScSTE2, two pCCW12-ScBAR1 cassettes, genome-integrated)
Description: (§1) Glycerol stocked strains were streaked out on YPD plate and incubated for 2 days. Three colonies were picked, replated on YPD plate, incubated for 1 day, and then stored at 4 °C. For activation assays, a small scoop of yeast patch from the 3 colonies was resuspended in ~4 ml of YPD medium and incubated overnight. Overnight cells were seeded at an optical density at 600 nm (OD600) of 0.15 (as measured in 96-well plate at 200-μl volume) in SC/Glc medium after washing twice with sterile Mili-Q H2O. GPCR activity and response to increasing concentrations of synthetic peptide ligands were measured in strains carrying appropriate genome-integrated components in 96-well microtiter plates in 200-μl total volume and cultured at 30 °C and 800 rpm, unless otherwise stated. All measurements were performed in biological triplicate. Culture turbidity (OD600) and fluorescence for ymTurquoise2 (excitation, 439 nm; emission, 475 nm; gain, 75) were measured after 0 and 8 h using an Infinite 200 Pro plate reader (Tecan). Dose–response curve was measured at 11 different concentrations of the appropriate synthetic peptide ligand with a constant dilution factor and a no-peptide, H2O control. The absorbance at 600 nm normalized fluorescence values and log10-transformed peptide concentrations were fit to a 4-parameter nonlinear regression model using Prism (GraphPad) to extract GPCR-specific values for basal activation, maximal activation, EC50, and the Hill coefficient.
(§2) Statistical tests of all experiments were performed using GraphPad Prism version 7 and are detailed within the legend of each figure. In all figures, the data points represent means ± SD of biological triplicates. Curves fitted to all dose–response data were fitted in Prism 7 using the nonlinear regression: variable slope (4-parameter) curve fitting.
(§3) Changes in EC50 and activation span (maximal fluorescence activation − basal fluorescence activation) due to difference in variant peptide sequences from the wild-type peptides are depicted as ΔlogEC50 from wild-type Pep (variant peptide logEC50 − wild-type peptide logEC50) and ΔSpan from wild-type Pep (variant peptide Span – wild-type peptide Span), respectively. Apparent shift in EC50 and change in activation span in both wild-type and variant peptides due to protease expression are depicted as ΔlogEC50 with protease (peptide logEC50 with protease − peptide logEC50 without protease) and ΔSpan with protease (peptide Span with protease − peptide Span without protease), respectively.

ScSte2 = target: T2, ScSte2 (Saccharomyces cerevisiae, UniProt D6VTK4); assay: cell-based; details: SEM
T2 construct: we cloned codon-optimized open reading frames (ORFs) of all 5 proteases and GPCRs; expressed in transfected cells; host or cells: S. cerevisiae yTC391 (from yTC370, native STE2 deleted; pTDH3-ScSTE2 genome-integrated)
Description: as §1, §2, §3

T2 sequence (D6VTK4 whole entry): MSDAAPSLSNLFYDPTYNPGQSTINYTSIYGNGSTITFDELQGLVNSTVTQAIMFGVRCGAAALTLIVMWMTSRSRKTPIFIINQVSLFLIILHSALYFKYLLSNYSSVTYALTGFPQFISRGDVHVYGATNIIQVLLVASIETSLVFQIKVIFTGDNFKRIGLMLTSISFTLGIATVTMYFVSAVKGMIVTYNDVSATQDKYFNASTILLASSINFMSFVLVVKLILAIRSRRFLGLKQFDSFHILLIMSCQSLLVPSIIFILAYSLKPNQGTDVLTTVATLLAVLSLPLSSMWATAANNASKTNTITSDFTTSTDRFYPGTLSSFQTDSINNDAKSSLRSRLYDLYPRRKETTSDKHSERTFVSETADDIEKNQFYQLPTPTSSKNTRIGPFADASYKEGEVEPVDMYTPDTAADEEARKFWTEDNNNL
T1 sequence (D6VTK4 whole entry): as above

Compound | EC50 (ScSte2 + ScBar1) | EC50 (ScSte2)
CSCC[C@H](NC(=O)[C@@H]1CCCN1C(=O)[C@H](CCC(N)=O)NC(=O)CNC(=O)[C@@H]1CCCN1C(=O)[C@H](CCCCN)NC(=O)[C@H](CC(C)C)NC(=O)[C@H](CCC(N)=O)NC(=O)[C@H](CC(C)C)NC(=O)[C@H](Cc1c[nH]c2ccccc12)NC(=O)[C@H](C)NC(=O)[C@@H](N)Cc1c[nH]c2ccccc12)C(=O)N[C@@H](Cc1ccc(O)cc1)C(=O)O [ScPep2A] | 10000 nM | 79.4 nM
CSCC[C@H](NC(=O)[C@@H]1CCCN1C(=O)[C@H](CCC(N)=O)NC(=O)CNC(=O)[C@@H]1CCCN1C(=O)[C@H](CCCCN)NC(=O)[C@H](CC(C)C)NC(=O)[C@H](C)NC(=O)[C@H](CC(C)C)NC(=O)[C@H](Cc1c[nH]c2ccccc12)NC(=O)[C@H](Cc1c[nH]cn1)NC(=O)[C@@H](N)Cc1c[nH]c2ccccc12)C(=O)N[C@@H](Cc1ccc(O)cc1)C(=O)O [ScPep5A] | 501 nM | 50.1 nM
CSCC[C@H](NC(=O)[C@@H]1CCCN1C(=O)[C@H](CCC(N)=O)NC(=O)[C@H](C)NC(=O)[C@@H]1CCCN1C(=O)[C@H](CCCCN)NC(=O)[C@H](CC(C)C)NC(=O)[C@H](CCC(N)=O)NC(=O)[C@H](CC(C)C)NC(=O)[C@H](Cc1c[nH]c2ccccc12)NC(=O)[C@H](Cc1c[nH]cn1)NC(=O)[C@@H](N)Cc1c[nH]c2ccccc12)C(=O)N[C@@H](Cc1ccc(O)cc1)C(=O)O [ScPep9A] | 15800 nM | 158 nM
CSCC[C@H](NC(=O)[C@@H]1CCCN1C(=O)[C@H](CCC(N)=O)NC(=O)CNC(=O)[C@@H]1CCCN1C(=O)[C@H](CCCCN)NC(=O)[C@H](CC(C)C)NC(=O)[C@H](CCC(N)=O)NC(=O)[C@H](CC(C)C)NC(=O)[C@H](C)NC(=O)[C@H](Cc1c[nH]cn1)NC(=O)[C@@H](N)Cc1c[nH]c2ccccc12)C(=O)N[C@@H](Cc1ccc(O)cc1)C(=O)O [ScPep3A] | 25100 nM | 63.1 nM
CSCC[C@H](NC(=O)[C@@H]1CCCN1C(=O)[C@H](CCC(N)=O)NC(=O)CNC(=O)[C@H](C)NC(=O)[C@H](CCCCN)NC(=O)[C@H](CC(C)C)NC(=O)[C@H](CCC(N)=O)NC(=O)[C@H](CC(C)C)NC(=O)[C@H](Cc1c[nH]c2ccccc12)NC(=O)[C@H](Cc1c[nH]cn1)NC(=O)[C@@H](N)Cc1c[nH]c2ccccc12)C(=O)N[C@@H](Cc1ccc(O)cc1)C(=O)O [ScPep8A] | 2510 nM | 79.4 nM
CSCC[C@H](NC(=O)[C@@H]1CCCN1C(=O)[C@H](CCC(N)=O)NC(=O)CNC(=O)[C@@H]1CCCN1C(=O)[C@H](C)NC(=O)[C@H](CC(C)C)NC(=O)[C@H](CCC(N)=O)NC(=O)[C@H](CC(C)C)NC(=O)[C@H](Cc1c[nH]c2ccccc12)NC(=O)[C@H](Cc1c[nH]cn1)NC(=O)[C@@H](N)Cc1c[nH]c2ccccc12)C(=O)N[C@@H](Cc1ccc(O)cc1)C(=O)O [ScPep7A] | 3980 nM | 126 nM
CSCC[C@H](NC(=O)[C@@H]1CCCN1C(=O)[C@H](CCC(N)=O)NC(=O)CNC(=O)[C@@H]1CCCN1C(=O)[C@H](CCCCN)NC(=O)[C@H](CC(C)C)NC(=O)[C@H](CCC(N)=O)NC(=O)[C@H](CC(C)C)NC(=O)[C@H](Cc1c[nH]c2ccccc12)NC(=O)[C@H](Cc1c[nH]cn1)NC(=O)[C@@H](N)Cc1c[nH]c2ccccc12)C(=O)N[C@@H](C)C(=O)O [ScPep13A] | 7940 nM | 63.1 nM
CSCC[C@H](NC(=O)[C@@H]1CCCN1C(=O)[C@H](CCC(N)=O)NC(=O)CNC(=O)[C@@H]1CCCN1C(=O)[C@H](CCCCN)NC(=O)[C@H](CC(C)C)NC(=O)[C@H](CCC(N)=O)NC(=O)[C@H](C)NC(=O)[C@H](Cc1c[nH]c2ccccc12)NC(=O)[C@H](Cc1c[nH]cn1)NC(=O)[C@@H](N)Cc1c[nH]c2ccccc12)C(=O)N[C@@H](Cc1ccc(O)cc1)C(=O)O [ScPep4A] | 3980 nM | 
CC(C)C[C@H](NC(=O)[C@H](Cc1c[nH]c2ccccc12)NC(=O)[C@H](Cc1c[nH]cn1)NC(=O)[C@@H](N)Cc1c[nH]c2ccccc12)C(=O)N[C@@H](CCC(N)=O)C(=O)N[C@@H](CC(C)C)C(=O)N[C@@H](CCCCN)C(=O)N1CCC[C@H]1C(=O)NCC(=O)N[C@@H](CCC(N)=O)C(=O)N1CCC[C@H]1C(=O)N[C@@H](C)C(=O)N[C@@H](Cc1ccc(O)cc1)C(=O)O [ScPep12A] | 1000 nM | 50.1 nM
CSCC[C@H](NC(=O)[C@@H]1CCCN1C(=O)[C@H](C)NC(=O)CNC(=O)[C@@H]1CCCN1C(=O)[C@H](CCCCN)NC(=O)[C@H](CC(C)C)NC(=O)[C@H](CCC(N)=O)NC(=O)[C@H](CC(C)C)NC(=O)[C@H](Cc1c[nH]c2ccccc12)NC(=O)[C@H](Cc1c[nH]cn1)NC(=O)[C@@H](N)Cc1c[nH]c2ccccc12)C(=O)N[C@@H](Cc1ccc(O)cc1)C(=O)O [ScPep10A] | 6310 nM | 126 nM
CSCC[C@H](NC(=O)[C@@H]1CCCN1C(=O)[C@H](CCC(N)=O)NC(=O)CNC(=O)[C@@H]1CCCN1C(=O)[C@H](CCCCN)NC(=O)[C@H](CC(C)C)NC(=O)[C@H](CCC(N)=O)NC(=O)[C@H](CC(C)C)NC(=O)[C@H](Cc1c[nH]c2ccccc12)NC(=O)[C@H](Cc1c[nH]cn1)NC(=O)[C@H](C)N)C(=O)N[C@@H](Cc1ccc(O)cc1)C(=O)O [ScPep1A] | 1260 nM | 39.8 nM
CSCC[C@H](NC(=O)[C@H](C)NC(=O)[C@H](CCC(N)=O)NC(=O)CNC(=O)[C@@H]1CCCN1C(=O)[C@H](CCCCN)NC(=O)[C@H](CC(C)C)NC(=O)[C@H](CCC(N)=O)NC(=O)[C@H](CC(C)C)NC(=O)[C@H](Cc1c[nH]c2ccccc12)NC(=O)[C@H](Cc1c[nH]cn1)NC(=O)[C@@H](N)Cc1c[nH]c2ccccc12)C(=O)N[C@@H](Cc1ccc(O)cc1)C(=O)O [ScPep11A] | 2510 nM | 50.1 nM
CSCC[C@H](NC(=O)[C@@H]1CCCN1C(=O)[C@H](CCC(N)=O)NC(=O)CNC(=O)[C@@H]1CCCN1C(=O)[C@H](CCCCN)NC(=O)[C@H](C)NC(=O)[C@H](CCC(N)=O)NC(=O)[C@H](CC(C)C)NC(=O)[C@H](Cc1c[nH]c2ccccc12)NC(=O)[C@H](Cc1c[nH]cn1)NC(=O)[C@@H](N)Cc1c[nH]c2ccccc12)C(=O)N[C@@H](Cc1ccc(O)cc1)C(=O)O [ScPep6A] | 3160 nM | 79.4 nM
